Results published in US11033537B2, “LPT-723 and immune checkpoint inhibitor combinations and methods of treatment” (BIOMED VALLEY DISCOVERIES, INC., priority 2015, dated 2021).
“Also recorded” adds a separate entry of the source.

Columns and labels:
MBT-2 cells = experiment: In vitro cell viability assay, MBT-2; assay type: cell-based, murine; conditions: Mus musculus
[1] = Monkey 7-day dose range finding study; assay type: in vivo
Protocol: Preparation of the Control/Vehicle Item: The control/vehicle item (2% TPGS/1.5% HPMCAS-HF/1.5% PVP-VA with 50 mM sodium citrate buffer pH 5.0) was prepared 3 days prior to the start of dosing and was stored at room temperature, away from direct light for the duration of the study. The instructions below were for the preparation of a final volume of 2.5 L. These instructions were scaled as needed.
500 mL of 10% Vitamin E-TPGS were added to an appropriate sized container and stirring was initiated. 750 mL of 5% HPMCAS-HF/5% PVP-VA were added to the same container and stirred at medium speed for 30 minutes to ensure proper mixing. 1 L of deionized water was added and stirring was continued for 30 minutes. 125 mL of 1M sodium citrate buffer and 125 mL of deionized water were added with stirring. The final vehicle was stirred at medium speed for 1 hour. The vehicle was a hazy solution and was stored at room temperature, away from direct light for the duration of the study.
Experimental Design: The test and control/vehicle items were administered once daily for 7 consecutive days by oral gavage as described in Table 6 below. The dose volume administered to each animal was 5 mL/kg. One day after the end of dosing, the Main animals were euthanized and subjected to a necropsy examination on Day 8.

[2] = Micronucleus assay (flow analysis, 7-day oral toxicity study); assay type: in vivo; conditions: rat blood, Day 8 of 7-day oral study
Protocol: Prior to necropsy on Day 8, rats in a main study group of a 7-day oral toxicity and toxicokinetic (TK) study were bled from the jugular vein for the evaluation of the flow analysis of micronucleus. […] The procedure used for collection and fixation of blood is summarized below:
Preparation of the Fixative Tubes: Fixative tubes were prepared one day prior to blood collection. Two 15 mL polypropylene centrifuge tubes (VWR no. 21008-103) were required per sample. 2 mL of ultracold fixative-methanol was added to each appropriately labeled tube (Tubes B1 and B2), and caps were replaced. The rack of tubes was placed overnight at approximately −80° C. to allow for sufficient chilling of the fixative.
Preparation of the Anticoagulant/Diluent Vials (prior to blood collection): One vial (2 mL cryovials; VWR no. 66008-728) was required for each sample. 350 μL of anticoagulant/diluent (Prototype Pig-a Mutation Assay Anticoagulant Solution, lot #17716, provided by BioReliance, from Litron) was aseptically aliquoted into each appropriately labeled vial (Tube A). […]
Transferring of Fixed Samples into LTSS: Samples were transferred into LTSS after they had been in the fixative for at least 3 days. […] With a container of ice and a 25 mL pipette ready for aliquoting the buffer solution used below, the following steps were performed as quickly as possible (within approximately 20 seconds). […]

[3] = Mouse 7-day dose range finding study; assay type: in vivo; conditions: 7 days
Protocol: Preparation of Test and Control/Vehicle Items: Vehicle is 2% TPGS/1.5% HPMCAS-HF/1.5% PVP-VA with 50 mM sodium citrate (pH 5.0) in deionized water. LPT-723 is a spray dried dispersion (SDD) containing 25% active and 75% HPMCAS-HF polymer. Test and vehicle items were stored at room temperature, protected from light, and desiccated. Dose formulation was prepared daily. Unless indicated otherwise, LPT-723 was mixed with vehicle to achieve the desired concentrations, using appropriate mixing equipment to achieve homogenous formulations.
The LPT-723 and vehicle were administered once per day for 7 consecutive days. Doses were administered at approximately the same time (±2 hours) throughout the duration of the study. All main study animals were submitted for necropsy on Day 8 (the day following the final dose).

A20 cells = experiment: In vitro cell viability assay, A20; assay type: cell-based, murine; conditions: Mus musculus
Pan02 cells = experiment: In vitro cell viability assay (CellTiter-Glo), Pan02; assay type: cell-based, murine; conditions: Mus musculus
From the text: No significant changes in body weights were noted.

HCT116 cells = experiment: In vitro activity on HCT116 cells in culture; assay type: cell-based, human; conditions: up to 30 μM

## Cc1cc(-c2cncc(C(O)C(F)(F)F)c2)nc2c1C(=O)N(c1cnn(CC(F)F)c1)C2(C)C (centres unmarked) [LPT-723]
MBT-2 cells
  IC50: 45.5 µM
[1]; monkey, 40 mg/kg/day oral, 7 days
  highest dose versus maximum tolerated dose: exceeded the maximum tolerated dose (MTD)
[1]; monkey, 15, 25, 40 mg/kg/day, 7 days
  lymphocyte counts: dose-related decrease in lymphocyte counts
[1]; monkey, with lower doses
  expected therapeutic index: approximately 5
[2]
  toxicity, micronucleus flow analysis: No toxicity was observed; also recorded: no significant toxicity
[3]; mouse, 15, 35, 70 mg/kg/day
  tolerability: well tolerated
[3]; mouse
  clinical signs and histopathology: no clinical signs or histopatholoy findings
  lymphocyte and monocyte counts: decrease in lymphocyte and monocyte counts
A20 cells
  IC50: 84.1 µM
Pan02 cells
  IC50: 26.6 µM
HCT116 cells
  activity in vitro on HCT116 cells in culture: no activity
